Patent US9938264B2, “Proteolysis targeting chimera compounds and methods of preparing and using same” (YALE UNIVERSITY, priority 2015, dated 2018)

Assays:
[1] = target: T1, BCR-ABL (Homo sapiens, UniProt P00519+P11274); assay: BCR-ABL degradation in K562 cells by immunoblot; format: cell-based
T1 construct: endogenous in cells; host or cells: K562 (ATCC)
Procedure: (§1) K562 cells were obtained from ATCC and were grown at 37° C., 5% CO2 in Iscove's Modified Dulbecco's Media (IMDM) supplemented with 10% FBS, 100 U/mL penicillin and 100 μg/mL streptomycin. HEK293 and SK-BR-3 cells were obtained from ATCC and were grown at 37° C., 5% CO2 in Dulbecco's Modified Eagle's Media (DMEM) supplemented with 10% FBS, 100 U/mL penicillin and 100 μg/mL streptomycin.
(§2) K562 cells (1-1.5×10^6) were treated for 24 hours with the indicated compounds solubilized in DMSO. The cells were collected at 300 g for 3 min. […] The total protein concentrations were determined by Pierce BCA Protein Assay and […] of protein was loaded onto 10% Tris-Glycine gels. After standard gel electrophoresis, the separated proteins were transferred to nitrocellulose by wet transfer. The immunoblots were then processed by standard procedures and incubated with the respective antibodies. Band intensities were quantified by Bio-Rad's Image Lab software.

[2] = target: T2, c-ABL (Homo sapiens, UniProt P00519); assay: c-ABL degradation in K562 cells by immunoblot; format: cell-based; settings: for decrease (degradation) of c-ABL: at 1 μM PROTAC; for concentration from which degradation of c-ABL is observed: 24 hrs, immunoblot
T2 construct: endogenous in cells; host or cells: K562 (ATCC)
T2 sequence (P00519 whole entry): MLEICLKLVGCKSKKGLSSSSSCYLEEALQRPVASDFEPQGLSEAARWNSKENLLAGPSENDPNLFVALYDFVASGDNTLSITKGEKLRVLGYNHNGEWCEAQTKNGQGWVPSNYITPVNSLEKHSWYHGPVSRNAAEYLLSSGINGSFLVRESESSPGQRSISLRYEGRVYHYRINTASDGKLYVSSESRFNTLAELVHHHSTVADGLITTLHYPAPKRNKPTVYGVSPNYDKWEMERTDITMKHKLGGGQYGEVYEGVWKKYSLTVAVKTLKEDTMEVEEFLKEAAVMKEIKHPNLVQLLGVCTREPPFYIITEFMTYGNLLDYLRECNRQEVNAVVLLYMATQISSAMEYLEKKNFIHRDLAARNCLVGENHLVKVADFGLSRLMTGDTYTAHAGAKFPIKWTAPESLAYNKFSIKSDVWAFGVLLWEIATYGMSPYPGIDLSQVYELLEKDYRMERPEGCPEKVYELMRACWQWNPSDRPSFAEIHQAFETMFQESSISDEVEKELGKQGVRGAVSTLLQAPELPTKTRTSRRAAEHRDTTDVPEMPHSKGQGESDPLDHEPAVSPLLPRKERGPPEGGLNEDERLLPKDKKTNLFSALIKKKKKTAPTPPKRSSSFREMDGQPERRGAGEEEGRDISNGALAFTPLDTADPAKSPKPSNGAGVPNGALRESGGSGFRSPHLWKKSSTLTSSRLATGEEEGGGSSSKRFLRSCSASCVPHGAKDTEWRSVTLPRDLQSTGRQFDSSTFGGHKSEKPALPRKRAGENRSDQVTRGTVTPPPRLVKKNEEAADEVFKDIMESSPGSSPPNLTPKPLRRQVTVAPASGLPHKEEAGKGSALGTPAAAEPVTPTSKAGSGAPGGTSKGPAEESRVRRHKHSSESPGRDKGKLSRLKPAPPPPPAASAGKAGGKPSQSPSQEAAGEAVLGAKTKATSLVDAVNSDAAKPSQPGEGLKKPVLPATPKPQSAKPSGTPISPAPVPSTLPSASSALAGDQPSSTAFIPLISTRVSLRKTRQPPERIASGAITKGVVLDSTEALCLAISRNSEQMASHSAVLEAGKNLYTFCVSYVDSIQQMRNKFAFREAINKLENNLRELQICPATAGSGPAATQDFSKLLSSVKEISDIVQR
Procedure: as §1, §2

[3] = target: T3, non-phosphorylated c-ABL kinase domain (Homo sapiens, UniProt P00519); assay: KinomeScan in vitro binding affinity (Kd), non-phosphorylated c-ABL kinase domain; settings: Table 2, read-out: ABL (non-phosphorylated)
T3 construct: phosphorylated and non-phosphorylated c-ABL kinase domain; purchased DiscoverRx Corporation (KinomeScan platform)
T3 sequence (P00519 242-493 limits assumed): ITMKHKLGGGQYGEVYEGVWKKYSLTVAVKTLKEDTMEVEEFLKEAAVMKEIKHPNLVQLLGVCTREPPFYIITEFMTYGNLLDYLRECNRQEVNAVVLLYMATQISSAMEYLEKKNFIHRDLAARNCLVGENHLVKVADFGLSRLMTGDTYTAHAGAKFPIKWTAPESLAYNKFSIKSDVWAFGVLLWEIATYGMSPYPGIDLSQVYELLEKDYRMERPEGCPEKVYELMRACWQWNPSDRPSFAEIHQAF
Procedure: (§3) PROTAC in vitro binding affinities (Kd) to phosphorylated and non-phosphorylated c-ABL kinase domain were determined using the KinomeScan platform (DiscoverRx Corporation). The compounds were solubilized in DMSO and sent to DiscoverRx Corporation as a 10 μM stock solution.

[4] = target: T4, phosphorylated c-ABL kinase domain (Homo sapiens, UniProt P00519); assay: KinomeScan in vitro binding affinity (Kd), phosphorylated c-ABL kinase domain; settings: Table 2, read-out: ABL (phosphorylated)
T4 construct: phosphorylated and non-phosphorylated c-ABL kinase domain; purchased DiscoverRx Corporation (KinomeScan platform)
T4 sequence (P00519 242-493 limits assumed): T3 sequence (P00519 242-493 limits assumed)
Procedure: as §3

T1 sequence (P11274+P00519 fused, change not shown): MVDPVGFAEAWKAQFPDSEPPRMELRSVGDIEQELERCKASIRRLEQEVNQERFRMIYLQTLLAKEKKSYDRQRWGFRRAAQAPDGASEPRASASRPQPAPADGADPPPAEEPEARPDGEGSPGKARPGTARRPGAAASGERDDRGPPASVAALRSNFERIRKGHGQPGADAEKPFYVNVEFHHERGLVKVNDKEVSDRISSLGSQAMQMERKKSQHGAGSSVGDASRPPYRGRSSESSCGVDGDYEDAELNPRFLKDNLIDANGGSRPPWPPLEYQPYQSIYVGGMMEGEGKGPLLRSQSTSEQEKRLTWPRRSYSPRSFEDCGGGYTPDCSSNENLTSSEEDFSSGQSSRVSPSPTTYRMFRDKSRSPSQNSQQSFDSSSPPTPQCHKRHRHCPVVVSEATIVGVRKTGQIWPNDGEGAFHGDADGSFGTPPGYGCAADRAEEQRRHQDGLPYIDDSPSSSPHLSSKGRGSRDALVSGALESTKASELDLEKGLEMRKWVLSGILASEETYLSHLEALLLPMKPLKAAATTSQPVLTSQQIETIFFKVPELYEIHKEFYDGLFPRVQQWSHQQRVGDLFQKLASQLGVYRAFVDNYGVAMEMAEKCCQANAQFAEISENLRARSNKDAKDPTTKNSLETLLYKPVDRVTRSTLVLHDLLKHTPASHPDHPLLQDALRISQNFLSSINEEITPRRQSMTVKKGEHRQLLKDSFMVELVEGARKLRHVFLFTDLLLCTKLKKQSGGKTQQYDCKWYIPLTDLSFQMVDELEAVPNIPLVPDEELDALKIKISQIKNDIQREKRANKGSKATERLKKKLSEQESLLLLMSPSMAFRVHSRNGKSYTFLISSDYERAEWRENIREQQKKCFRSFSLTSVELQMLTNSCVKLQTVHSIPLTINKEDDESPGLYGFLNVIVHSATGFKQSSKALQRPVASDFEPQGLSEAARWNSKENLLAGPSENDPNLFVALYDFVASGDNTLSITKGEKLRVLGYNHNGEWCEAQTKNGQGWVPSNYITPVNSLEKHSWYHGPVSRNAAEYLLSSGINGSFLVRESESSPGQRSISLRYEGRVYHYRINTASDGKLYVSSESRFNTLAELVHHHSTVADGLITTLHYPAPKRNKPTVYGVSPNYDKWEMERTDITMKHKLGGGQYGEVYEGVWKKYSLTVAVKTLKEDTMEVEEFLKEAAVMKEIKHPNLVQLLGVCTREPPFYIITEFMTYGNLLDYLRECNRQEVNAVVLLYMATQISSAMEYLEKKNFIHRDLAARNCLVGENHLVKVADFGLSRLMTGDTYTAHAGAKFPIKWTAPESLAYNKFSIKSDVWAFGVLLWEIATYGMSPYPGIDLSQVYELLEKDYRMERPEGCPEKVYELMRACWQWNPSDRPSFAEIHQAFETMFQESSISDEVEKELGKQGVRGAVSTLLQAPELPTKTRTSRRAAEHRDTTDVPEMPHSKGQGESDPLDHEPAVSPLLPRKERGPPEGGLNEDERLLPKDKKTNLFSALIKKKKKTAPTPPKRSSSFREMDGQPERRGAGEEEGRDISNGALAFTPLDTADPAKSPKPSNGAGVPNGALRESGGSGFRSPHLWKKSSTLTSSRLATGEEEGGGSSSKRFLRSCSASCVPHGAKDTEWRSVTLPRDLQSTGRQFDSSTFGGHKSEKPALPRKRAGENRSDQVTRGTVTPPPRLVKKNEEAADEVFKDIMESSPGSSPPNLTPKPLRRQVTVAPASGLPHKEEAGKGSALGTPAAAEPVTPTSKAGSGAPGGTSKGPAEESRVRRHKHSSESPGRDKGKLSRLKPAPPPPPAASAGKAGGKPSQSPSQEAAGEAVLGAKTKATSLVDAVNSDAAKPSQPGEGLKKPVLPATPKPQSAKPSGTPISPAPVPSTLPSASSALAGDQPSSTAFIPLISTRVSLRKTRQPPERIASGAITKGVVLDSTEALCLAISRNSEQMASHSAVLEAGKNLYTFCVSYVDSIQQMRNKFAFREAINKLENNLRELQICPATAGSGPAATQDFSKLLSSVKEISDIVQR
T1 sequence (Q96SW2 whole entry, change not shown, further chain): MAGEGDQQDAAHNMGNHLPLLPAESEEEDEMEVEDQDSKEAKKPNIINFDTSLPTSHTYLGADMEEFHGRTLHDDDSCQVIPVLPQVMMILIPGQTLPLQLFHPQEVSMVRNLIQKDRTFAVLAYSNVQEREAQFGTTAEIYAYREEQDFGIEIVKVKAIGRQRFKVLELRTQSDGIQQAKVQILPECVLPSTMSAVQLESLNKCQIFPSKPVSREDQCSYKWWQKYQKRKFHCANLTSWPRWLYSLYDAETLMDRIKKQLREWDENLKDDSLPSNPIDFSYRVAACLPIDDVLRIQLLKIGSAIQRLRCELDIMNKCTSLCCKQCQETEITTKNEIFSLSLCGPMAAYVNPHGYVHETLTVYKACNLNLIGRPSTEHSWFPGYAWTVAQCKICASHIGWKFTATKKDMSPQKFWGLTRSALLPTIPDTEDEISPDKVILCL
T1 sequence (Q16531 whole entry partner): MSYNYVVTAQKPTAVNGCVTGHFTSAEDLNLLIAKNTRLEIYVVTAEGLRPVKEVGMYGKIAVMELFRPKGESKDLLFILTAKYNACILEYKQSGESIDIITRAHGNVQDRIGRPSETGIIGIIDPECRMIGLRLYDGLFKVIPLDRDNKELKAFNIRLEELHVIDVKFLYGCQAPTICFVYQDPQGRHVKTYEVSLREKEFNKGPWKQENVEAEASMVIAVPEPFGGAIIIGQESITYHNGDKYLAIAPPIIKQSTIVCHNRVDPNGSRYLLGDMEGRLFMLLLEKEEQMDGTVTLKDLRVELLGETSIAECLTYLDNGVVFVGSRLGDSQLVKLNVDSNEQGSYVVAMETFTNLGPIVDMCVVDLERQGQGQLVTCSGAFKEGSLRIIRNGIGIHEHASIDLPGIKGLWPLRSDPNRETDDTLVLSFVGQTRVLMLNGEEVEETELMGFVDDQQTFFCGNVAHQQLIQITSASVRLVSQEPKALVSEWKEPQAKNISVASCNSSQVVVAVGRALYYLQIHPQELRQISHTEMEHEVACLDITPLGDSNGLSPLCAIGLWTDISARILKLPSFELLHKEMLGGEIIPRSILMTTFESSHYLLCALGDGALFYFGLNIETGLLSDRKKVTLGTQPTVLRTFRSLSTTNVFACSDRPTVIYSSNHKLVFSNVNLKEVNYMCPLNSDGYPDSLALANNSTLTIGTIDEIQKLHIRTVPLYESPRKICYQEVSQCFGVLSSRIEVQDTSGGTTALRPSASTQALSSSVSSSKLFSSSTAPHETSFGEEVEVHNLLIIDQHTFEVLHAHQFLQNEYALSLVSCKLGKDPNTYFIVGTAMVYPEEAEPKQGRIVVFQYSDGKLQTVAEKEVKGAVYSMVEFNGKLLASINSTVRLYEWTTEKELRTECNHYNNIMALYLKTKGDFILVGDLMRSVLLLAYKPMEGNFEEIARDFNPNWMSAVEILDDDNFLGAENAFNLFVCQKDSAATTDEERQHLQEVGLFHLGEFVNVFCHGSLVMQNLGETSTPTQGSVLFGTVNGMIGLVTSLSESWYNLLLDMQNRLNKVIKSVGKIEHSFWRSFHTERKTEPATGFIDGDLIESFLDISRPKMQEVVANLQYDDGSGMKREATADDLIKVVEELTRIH

Molecule	Kd [3] [nM]	decrease (degradation) of c-ABL [2] [%]	concentration from which degradation of c-ABL is observed [2] [µM]	Kd [4] [nM]	further results
6-(2-(2-((6-(4-(3-((3-cyano-4-((2,4-dichloro-5-methoxyphenyl)amino)-6-methoxyquinolin-7-yl)oxy)propyl)piperazin-1-yl)hexyl)oxy)ethoxy)ethoxy)-N-(2-(2,6-dioxopiperidin-3-yl)-1,3-dioxoisoindolin-4-yl)hexanamide [BOS-6-2-2-6-CRBN]	–	–	–	–	BCR-ABL degradation ([1]; at 2.5 μM): > 80%; c-ABL degradation ([2]; at 2.5 μM): > 90%
Cc1nc(Nc2ncc(C(=O)Nc3c(C)cccc3Cl)s2)cc(N2CCN(CCCCCCOCCOCCOCCCCCC(=O)Nc3cccc4c3C(=O)N(C3CCC(=O)NC3=O)C4=O)CC2)n1 (centres unmarked) [DAS-6-2-2-6-CRBN, N-(2-chloro-6-methylphenyl)-2-((6-(4-(6-(2-(2-((6-((2-(2,6-dioxopiperidin-3-yl)-1,3-dioxoisoindolin-4-yl)amino)-6-oxohexyl)oxy)ethoxy)ethoxy)hexyl)piperazin-1-yl)-2-methylpyrimidin-4-yl)amino)thiazole-5-carboxamide]	0.6	> 85	–	–	BCR-ABL degradation ([1]; at 1 μM PROTAC): > 60%
Cc1nc(Nc2ncc(C(=O)Nc3c(C)cccc3Cl)s2)cc(N2CCN(CCCCCCOCCOCCOCCCCCC(=O)N[C@H](C(=O)N3C[C@H](O)C[C@H]3C(=O)NCc3ccc(-c4scnc4C)cc3)C(C)(C)C)CC2)n1 [DAS-6-2-2-6-VHL, N-(2-chloro-6-methylphenyl)-2-((6-(4-((S)-3-((2S,4R)-4-hydroxy-2-((4-(4-methylthiazol-5-yl)benzyl)carbamoyl)pyrrolidine-1-carbonyl)-2,2-dimethyl-5-oxo-11,14,17-trioxa-4-azatricosan-23-yl)piperazin-1-yl)-2-methylpyrimidin-4-yl)amino)thiazole-5-carboxamide]	0.92	> 65	≥ 1	0.47	–

Further lines, with some results ahead:

Kd [3] [nM]	decrease (degradation) of c-ABL [2] [%]	concentration from which degradation of c-ABL is observed [2] [µM]	Kd [4] [nM]	Molecule	further results
–	–	≥ 1	–	Cc1nc(Nc2ncc(C(=O)Nc3c(C)cccc3Cl)s2)cc(N2CCN(CCCCCCOCCOCC(=O)N[C@H](C(=O)N3C[C@H](O)C[C@H]3C(=O)NCc3ccc(-c4scnc4C)cc3)C(C)(C)C)CC2)n1 [DAS-6-2-2-VHL, N-(2-chloro-6-methylphenyl)-2-((6-(4-(6-(2-(2-(((S)-1-((2S,4R)-4-hydroxy-2-((4-(4-methylthiazol-5-yl)benzyl)carbamoyl)pyrrolidin-1-yl)-3,3-dimethyl-1-oxobutan-2-yl)amino)-2-oxoethoxy)ethoxy)hexyl)piperazin-1-yl)-2-methylpyrimidin-4-yl)amino)thiazole-5-carboxamide]	–
2.6	–	≥ 1	1.3	Cc1nc(Nc2ncc(C(=O)Nc3c(C)cccc3Cl)s2)cc(N2CCN(CCCCCCOCCCCCOCCCCCC(=O)N[C@H](C(=O)N3C[C@H](O)C[C@H]3C(=O)NCc3ccc(-c4scnc4C)cc3)C(C)(C)C)CC2)n1 [DAS-6-5-6-VHL, N-(2-chloro-6-methylphenyl)-2-((6-(4-(6-((5-((6-(((S)-1-((2S,4R)-4-hydroxy-2-((4-(4-methylthiazol-5-yl)benzyl)carbamoyl)pyrrolidin-1-yl)-3,3-dimethyl-1-oxobutan-2-yl)amino)-6-oxohexyl)oxy)pentyl)oxy)hexyl)piperazin-1-yl)-2-methylpyrimidin-4-yl)amino)thiazole-5-carboxamide]	–
–	–	≥ 1	–	Cc1nc(Nc2ncc(C(=O)Nc3c(C)cccc3Cl)s2)cc(N2CCN(CCCCCCOCCOCCOCCOCCOCCOCC(=O)N[C@H](C(=O)N3C[C@H](O)C[C@H]3C(=O)NCc3ccc(-c4scnc4C)cc3)C(C)(C)C)CC2)n1 [DAS-6-(2-)5-2-VHL, N-(2-chloro-6-methylphenyl)-2-((6-(4-((S)-3-((2S,4R)-4-hydroxy-2-((4-(4-methylthiazol-5-yl)benzyl)carbamoyl)pyrrolidine-1-carbonyl)-2,2-dimethyl-5-oxo-7,10,13,16,19,22-hexaoxa-4-azaoctacosan-28-yl)piperazin-1-yl)-2-methylpyrimidin-4-yl)amino)thiazole-5-carboxamide]	–
